These results are taken from ChEMBL document CHEMBL2040787, “Synthesis and carbonic anhydrase inhibitory properties of novel bromophenols and their derivatives including natural products: vidalol B” (Eur J Med Chem, 2012).

As usually defined, the Ki is a measure of affinity in units of concentration, obtained from inhibition or displacement.

In one test the target is Carbonic anhydrase 2 (Homo sapiens, UniProt P00918). Kind of test: Inhibition of human CA2 using 4NPA as substrate for 3 mins by Lineweaver burk plot analysis.
A further test deals with Carbonic anhydrase 4 (Homo sapiens, UniProt P22748). The test is described as follows: Inhibition of human CA4 using 4NPA as substrate for 3 mins by Lineweaver burk plot analysis.
The target of the next test is Carbonic anhydrase 6 (Homo sapiens, UniProt P23280). The test is described as follows: Inhibition of human CA6 using 4NPA as substrate for 3 mins by Lineweaver burk plot analysis.
For a further test, the target named is Carbonic anhydrase 1 (Homo sapiens, UniProt P00915). Kind of test: Noncompetitive inhibition of human CA1 using 4NPA as substrate for 3 mins by Lineweaver burk plot analysis.
Chain of Carbonic anhydrase 1 (P00915 whole entry): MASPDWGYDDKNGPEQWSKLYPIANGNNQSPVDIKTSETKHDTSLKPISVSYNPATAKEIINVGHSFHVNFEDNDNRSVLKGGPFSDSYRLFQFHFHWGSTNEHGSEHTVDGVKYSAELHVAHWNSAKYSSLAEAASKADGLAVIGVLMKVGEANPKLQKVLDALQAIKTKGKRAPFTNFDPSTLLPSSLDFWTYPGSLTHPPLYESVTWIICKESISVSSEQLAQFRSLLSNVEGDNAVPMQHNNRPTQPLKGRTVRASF

Chain of Carbonic anhydrase 4 (P22748 whole entry): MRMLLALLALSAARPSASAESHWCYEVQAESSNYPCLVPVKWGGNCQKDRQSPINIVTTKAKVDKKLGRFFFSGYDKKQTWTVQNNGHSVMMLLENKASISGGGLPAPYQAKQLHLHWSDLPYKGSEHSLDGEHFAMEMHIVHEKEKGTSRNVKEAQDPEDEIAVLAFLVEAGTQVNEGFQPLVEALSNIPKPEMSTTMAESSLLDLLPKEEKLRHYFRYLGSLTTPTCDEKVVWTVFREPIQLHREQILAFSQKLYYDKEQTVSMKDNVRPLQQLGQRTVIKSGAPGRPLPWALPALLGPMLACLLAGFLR
Chain of Carbonic anhydrase 6 (P23280 whole entry): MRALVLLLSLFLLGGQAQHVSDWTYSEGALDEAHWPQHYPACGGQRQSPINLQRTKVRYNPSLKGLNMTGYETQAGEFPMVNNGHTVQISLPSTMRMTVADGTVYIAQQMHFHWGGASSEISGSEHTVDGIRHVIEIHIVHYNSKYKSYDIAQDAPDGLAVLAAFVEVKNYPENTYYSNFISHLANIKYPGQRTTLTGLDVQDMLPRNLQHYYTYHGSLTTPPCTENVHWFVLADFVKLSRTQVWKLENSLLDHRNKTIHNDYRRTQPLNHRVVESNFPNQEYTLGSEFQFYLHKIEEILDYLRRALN

Take `COc1c(Br)c(Br)c(Cc2c(Br)c(Br)c(OC)c(OC)c2Br)c(Br)c1OC`: the Ki came out at 35.5 µM on Carbonic anhydrase 2, 32.7 µM at Carbonic anhydrase 4, 29.7 µM at Carbonic anhydrase 6 and 43.5 µM on Carbonic anhydrase 1.
As to `COc1ccc(Cc2ccc(OC)c(OC)c2)cc1OC`, the Ki is 59.1 µM at Carbonic anhydrase 2, 145 µM at Carbonic anhydrase 4, 382 µM at Carbonic anhydrase 6 and 537 µM on Carbonic anhydrase 1.
Take `COc1ccccc1` [ANISOLE]: at Carbonic anhydrase 6, the Ki stood at 235 µM.
For `Oc1ccc(Cc2ccc(O)c(O)c2)cc1O`, the Ki on Carbonic anhydrase 2 worked out at 5.64 µM; at Carbonic anhydrase 4 it was 7.64 µM; at Carbonic anhydrase 6, 13.7 µM; at Carbonic anhydrase 1, 18.4 µM.
As for `COc1ccc(C(=O)O)cc1OC` [VERATRIC ACID], the Ki on Carbonic anhydrase 4 was determined as 6.48 µM; at Carbonic anhydrase 6, 24.4 µM.
For the molecule `O=C(O)c1ccc(O)c(O)c1` [PROTOCATECHUIC ACID], on Carbonic anhydrase 4, the Ki worked out at 2.45 µM.
